Source: ChEMBL document CHEMBL1135263, “Reductive amination products containing naphthalene and indole moieties bind to melanocortin receptors” (Bioorg Med Chem Lett, 2002)

Experiments:
Melanocortin receptor 4 = Melanocortin receptor 4 (Homo sapiens, UniProt P32245); experiment: Tested for its binding affinity towards human recombinant Melanocortin 4 receptor by using radioligand binding assay
Melanocortin receptor 5 = Melanocortin receptor 5 (Homo sapiens, UniProt P33032); experiment: Tested for its binding affinity towards human recombinant Melanocortin 5 receptor by using radioligand binding assay
[1] = biological target: T1, Melanocyte-stimulating hormone receptor (Homo sapiens, UniProt Q01726); experiment: Tested for its binding affinity towards human recombinant Melanocortin 1 receptor by using radioligand binding assay
Melanocortin receptor 3 [2] = biological target: T2, Melanocortin receptor 3 (Homo sapiens, UniProt P41968); experiment: Tested for its binding affinity towards human recombinant Melanocortin 3 receptor by using radioligand binding assay
Melanocortin receptor 3 [3] = biological target: T2, Melanocortin receptor 3; experiment: Tested for its binding affinity towards human recombinant Melanocortin 3 receptor by using radioligand binding assay; nb = no binding up to 0.5 mM
[4] = biological target: T1, Melanocyte-stimulating hormone receptor; experiment: Tested for its binding affinity towards human recombinant Melanocortin 1 receptor by using radioligand binding assay; nb = no binding up to 0.5 mM

Sequence of Melanocortin receptor 4 (P32245 whole entry): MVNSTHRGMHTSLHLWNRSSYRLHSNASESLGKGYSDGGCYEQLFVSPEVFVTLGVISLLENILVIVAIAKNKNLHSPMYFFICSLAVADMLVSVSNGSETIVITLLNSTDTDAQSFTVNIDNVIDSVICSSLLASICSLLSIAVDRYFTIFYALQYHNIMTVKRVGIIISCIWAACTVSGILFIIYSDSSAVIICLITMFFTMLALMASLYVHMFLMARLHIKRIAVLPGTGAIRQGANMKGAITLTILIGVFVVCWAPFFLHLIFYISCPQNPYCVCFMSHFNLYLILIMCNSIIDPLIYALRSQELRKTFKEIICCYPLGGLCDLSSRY
T1 sequence (Q01726 whole entry): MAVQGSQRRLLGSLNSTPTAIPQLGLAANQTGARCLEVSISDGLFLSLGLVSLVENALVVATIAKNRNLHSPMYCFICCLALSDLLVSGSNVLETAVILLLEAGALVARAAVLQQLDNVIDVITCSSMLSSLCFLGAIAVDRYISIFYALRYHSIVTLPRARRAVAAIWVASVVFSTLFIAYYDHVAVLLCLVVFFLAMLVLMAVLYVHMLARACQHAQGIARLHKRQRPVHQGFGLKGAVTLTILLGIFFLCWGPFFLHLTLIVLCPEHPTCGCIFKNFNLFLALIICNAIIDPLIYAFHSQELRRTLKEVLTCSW
T2 sequence (P41968 whole entry): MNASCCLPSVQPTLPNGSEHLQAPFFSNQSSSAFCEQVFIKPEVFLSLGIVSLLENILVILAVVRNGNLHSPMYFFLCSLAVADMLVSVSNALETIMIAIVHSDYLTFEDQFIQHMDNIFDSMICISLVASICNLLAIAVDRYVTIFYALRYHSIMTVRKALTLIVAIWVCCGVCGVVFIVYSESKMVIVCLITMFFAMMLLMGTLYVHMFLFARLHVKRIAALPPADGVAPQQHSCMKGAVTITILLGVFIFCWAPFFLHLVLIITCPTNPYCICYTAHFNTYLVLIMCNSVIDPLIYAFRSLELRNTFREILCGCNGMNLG
Sequence of Melanocortin receptor 5 (P33032 whole entry): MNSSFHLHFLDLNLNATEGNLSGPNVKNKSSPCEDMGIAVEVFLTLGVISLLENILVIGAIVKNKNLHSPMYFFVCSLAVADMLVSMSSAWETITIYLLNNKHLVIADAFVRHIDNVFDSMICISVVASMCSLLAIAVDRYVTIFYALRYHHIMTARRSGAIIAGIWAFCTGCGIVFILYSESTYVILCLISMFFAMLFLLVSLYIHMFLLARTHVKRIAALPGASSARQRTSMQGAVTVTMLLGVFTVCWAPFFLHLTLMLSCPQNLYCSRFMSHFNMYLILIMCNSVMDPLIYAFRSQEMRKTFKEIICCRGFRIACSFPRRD

Row | Compound | Ki (Melanocortin receptor 4) [µM] | Ki (Melanocortin receptor 5) [µM] | Ki [1] [µM] | Ki (Melanocortin receptor 3 [2]) [µM] | Ki (Melanocortin receptor 3 [3]) | Ki [4]
1 | c1ccc2c(CCNCc3c[nH]c4ccccc34)c[nH]c2c1 | 161 | 18 | 32 | 86 | – | –
2 | N=C(N)NCCCNCc1ccc2ccccc2c1 | 56 | 36 | 19 | 31 | – | –
3 | NCCCNC(=O)[C@H](CNCc1c[nH]c2ccccc12)NCc1ccc2ccccc2c1 | 27 | 36 | 0.7 | 56 | – | –
4 | c1ccc2c(CN3CCNCC3)c[nH]c2c1 | > 1000 | 256 | > 1000 | > 1000 | – | –
5 | c1ccc2cc(CNCCc3c[nH]c4ccccc34)ccc2c1 | 118 | 14 | 16 | 59 | – | –
6 | NCCCNCc1ccc2ccccc2c1 | 94 | 43 | > 1000 | 57 | – | –
7 | c1ccc2c(CNCc3c[nH]c4ccccc34)cccc2c1 | 161 | 38 | 26 | 214 | – | –
8 | NCCCCNC(=O)[C@H](CCCCNCc1c[nH]c2ccccc12)NCc1ccc2ccccc2c1 | 24 | 173 | 9.8 | 167 | – | –
9 | NCCCNCc1c[nH]c2ccccc12 | 104 | 150 | 28 | 145 | – | –
10 | N=C(N)N1CCN(Cc2ccc3ccccc3c2)CC1 | 68 | 74 | > 1000 | > 1000 | – | –
11 | N=C(N)N1CCN(Cc2c[nH]c3ccccc23)CC1 | > 1000 | > 1000 | > 1000 | > 1000 | – | –
12 | N=C(N)NCCCNCc1c[nH]c2ccccc12 | 107 | 47 | 12 | 45 | – | –
13 | NCCNCc1ccc2ccccc2c1 | 8.8 | 83 | – | – | Not Active | Not Active
14 | c1ccc2cc(CN3CCNCC3)ccc2c1 | > 1000 | 141 | > 1000 | > 1000 | – | –

The remaining lines, values ahead:

Row | Ki (Melanocortin receptor 4) [µM] | Ki (Melanocortin receptor 5) [µM] | Ki [1] [µM] | Ki (Melanocortin receptor 3 [2]) [µM] | Ki (Melanocortin receptor 3 [3]) | Ki [4] | Compound
15 | 70 | 12 | 11 | 52 | – | – | NC(N)=NCCC[C@H](N)C(=O)N(Cc1cccc2ccccc12)Cc1c[nH]c2ccccc12
16 | 44 | 28 | 27 | 58 | – | – | NCCNC(=O)[C@H](CNCc1ccc2ccccc2c1)NCc1ccc2ccccc2c1
17 | > 1000 | 100 | > 1000 | > 1000 | – | – | c1ccc2cc(CNCc3cccc4ccccc34)ccc2c1
18 | 89 | 45 | 46 | 294 | – | – | N[C@H](CCC(=O)O)C(=O)N(Cc1ccc2ccccc2c1)Cc1cccc2ccccc12
19 | 15 | 10 | 1.5 | 19 | – | – | NC(N)=NCCCC(N)C(=O)N(CCc1c[nH]c2ccccc12)Cc1ccc2ccccc2c1 (single isomer, unassigned)
20 | 5.4 | 2.5 | 0.69 | 9 | – | – | NC(N)=NCCC[C@H](N)C(=O)N(Cc1ccc2ccccc2c1)Cc1cccc2ccccc12 (stereo in doubt; 11b)
21 | 2.1 | 2.7 | 1.2 | 18 | – | – | NC(N)=NCCC[C@H](N)C(=O)N(Cc1ccc2ccccc2c1)Cc1cccc2ccccc12 (stereo in doubt; 11c)
